The test system of test [1] is PAF-induced platelet aggregation. Put plainly: Inhibition of PAF-induced platelet aggregation in vitro (Born and Cross method). It is filed as cell-based, healthy male and female donors (human). The settings on record: PAF 5 ×10^-8 M; human platelet-rich plasma (TRP); n=4; read-out: PAF-induced platelet aggregation (inhibition, IC50 = concentration at 50% aggregation inhibition). The procedure:
200 ml samples of blood were taken from a non-obstructed vein, with the aid of a plastic syringe containing 3.8% sodium citrate solution, from healthy male and female donors aged from 18 to 35 years who had not taken any medicaments (aspirin or other non-steroid anti-inflammatories) for several days before the blood withdrawal. The ratio of sodium citrate solution:blood was 1:9. The citrated blood was centrifuged in plastic tubes at 150 ×g (=1,200 rpm) at room temperature for 20 min (Heraeus Christ bench centrifuge 124).
The platelet aggregation was measured in vitro by the method of Born and Cross (1963), an aggregation inducer (PAF) being added to the TRP, while stirring constantly. For the measurement, 0.8 ml TRP and 0.2 ml modified Tyrode's solution (see below) were introduced into 1 ml plastic cells, each of which contained a small metal pin (stirrer, 1,000 rpm). The test substance was added in a volume of 10 μl for 2 to 3 min before inducing the aggregation. Either DMSO and water or a dilute HCl solution was used as the solvent. The control batches contained the corresponding volume of these solvents. After recording the initial absorption (2-3 min), aggregation was induced. PAF (5 ×10^-8 M; Bachem Feinchemikalien) was introduced into the cell in a volume of 10 μl.
The modified Tyrode's solution had the following composition: 136.9 mM NaCl; 2.68 mM KCl; 0.5 mM MgCl2; 1.8 mM CaCl2; 0.42 mM NaH2 PO4; 5.55 mM glucose and 11.9 mM NaHCO3.
To evaluate substance effects, the maximum of the first aggregation wave was used. The maximum absorption induced by the aggregation inducer (=maximum aggregation=100%) was simultaneously run in a parallel batch (in the 2nd channel of the aggregometer) to each test batch and used as the 100% value. The aggregation value achieved under the action of the test substance was quoted as % of the control value (batch).
Concentration/effect curves with a random sample size of in each case n=4 were plotted with the aid of this method and IC50 values (concentration at 50% aggregation inhibition) were calculated.

The target of another test is T1, PAF receptor (Homo sapiens, UniProt P25105).
T1 construct: determined using human thrombocytes; endogenous in cells; host or cells: human thrombocytes (platelets)
Put plainly: 3H-PAF-receptor bonding on human thrombocytes (platelets). It is filed as binding. The settings on record: method as in European Patent Application 368 175. The procedure: Then, at 20° C., 18.3 g (0.12 mol) of hydroxybenzotriazole (HOBT), 23.7 g (0.109 mol) of N-4-trifluoromethylbenzyl-N-n-propylamine and 25.6 g (0.125 mol) of dicyclohexyl-carbodiimide (DCCI) and a further 250 ml of dimethylformamide (DMF) were added. The mixture was left to react for 24 hours. It was then cooled to 5° C. and filtered. 500 ml of water were added to the filtrate and it was extracted with ethyl acetate. The combined organic phases were washed with water and saturated sodium hydrogen carbonate solution, dried with magnesium sulphate and filtered over kieselguhr/char-coal. After working up in the usual way, 50 g of colourless crystals of the title compound are obtained by crystallisation from ethanol/diisopropylether (1:1). […] (The method used is described for example in European Patent Application 368 175).

The structures appear in SMILES notation.

T1 sequence (P25105 whole entry): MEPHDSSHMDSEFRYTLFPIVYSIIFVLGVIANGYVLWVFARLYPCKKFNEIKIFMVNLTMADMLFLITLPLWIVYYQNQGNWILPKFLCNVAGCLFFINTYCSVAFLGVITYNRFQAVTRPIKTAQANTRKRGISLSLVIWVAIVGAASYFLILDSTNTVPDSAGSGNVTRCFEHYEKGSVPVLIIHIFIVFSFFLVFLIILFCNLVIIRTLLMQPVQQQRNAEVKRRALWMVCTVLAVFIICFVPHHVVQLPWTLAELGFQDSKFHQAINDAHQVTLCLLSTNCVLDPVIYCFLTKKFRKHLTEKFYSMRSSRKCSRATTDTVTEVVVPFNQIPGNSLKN

Consider `CCCN(Cc1ccccc1)C(=O)[C@@H]1Cc2sc3c(c2C1)C(c1ccccc1Cl)=NCc1nnc(C)n1-3` [Example 2, S(-)-3-(Benzylpropylaminocarbonyl)-5-(2-chlorophenyl)-10-methyl-7H-cyclopenta[4,5]thieno[3,2-f][1,2,4]-triazolo-[4,3-a][1,4]diazepine], for which the IC50 in test [1] stood at 49 nM.

In the case of `CCN(Cc1ccccc1)C(=O)[C@@H]1Cc2sc3c(c2C1)C(c1ccccc1Cl)=NCc1nnc(C)n1-3` [Example 6, S(-)-3-(Benzylethylaminocarbonyl)-5-(2-chlorophenyl)-10-methyl-7H-cyclopenta[4,5]thieno[3,2-f][1,2,4]triazolo-[4,3-a][1,4]diazepine], the IC50 in test [1] was determined as 23 nM.

On to `CCCCN(Cc1ccccc1)C(=O)[C@@H]1Cc2sc3c(c2C1)C(c1ccccc1Cl)=NCc1nnc(C)n1-3` [Example 7, S(-)-3-(Benzylbutylaminocarbonyl)-5-(2-chlorophenyl)-10-methyl-7H-cyclopenta[4,5]thieno-[3,2-f][1,2,4]triazolo-[4,3-a][1,4]diazepine], for which the IC50 in test [1] came to 84 nM.

Consider `Cc1nnc2n1-c1sc3c(c1C(c1ccccc1Cl)=NC2)C[C@H](C(=O)N(Cc1ccccc1)Cc1ccccc1)C3` [Example 10, S(--)-3-(Dibenzylaminocarbonyl)-5-(2-chlorophenyl)-10-methyl-7H-cyclopenta[4,5]thieno-[3,2-f][1,2,4]-triazolo-[4,3-a][1,4]diazepine], for which the IC50 in test [1] worked out at 37 nM.

Compound `CCCN(Cc1ccc(C(F)(F)F)cc1)C(=O)[C@@H]1Cc2sc3c(c2C1)C(c1ccccc1Cl)=NCc1nnc(C)n1-3` [Example 18] registered a Ki at PAF receptor of 1.8 nM.

As a reminder, the Ki is a measure of affinity in units of concentration, obtained from inhibition or displacement. A lower Ki goes with tighter binding.

These data come from US5698552A, “Hetrazepinoid amides” (Boehringer Ingelheim KG, priority 1990, dated 1997).
